Test results from paper PMC5330486 (PLoS Biology, 2017).

Target: T1, AsfvPolX (ASFV DNA Polymerase X) (African swine fever virus BA71V, UniProt P42494)
T1 construct: gene Ba71V-97
Assay: biochemical
Assay type: binding
Details: for AsfvPolX: no DNA stated, buffer, metal and temperature not stated

T1 sequence (P42494 whole entry, looked up): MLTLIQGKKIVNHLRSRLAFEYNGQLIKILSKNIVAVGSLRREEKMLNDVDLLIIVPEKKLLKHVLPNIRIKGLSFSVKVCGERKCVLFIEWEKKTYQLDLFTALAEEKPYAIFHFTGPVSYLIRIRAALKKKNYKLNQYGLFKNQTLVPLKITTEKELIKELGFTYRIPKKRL

Compound | Kd [µM] | other results
Nc1nc2c(ncn2[C@H]2C[C@H](O)[C@@H](COP(=O)(O)OP(=O)(O)OP(=O)(O)O)O2)c(=O)[nH]1 [dGTP] |  | AsfvPolX (structures are ternary complexes with gap(P) DNA and Mn2+): 0.37+0.02 μM
Cc1cn([C@H]2C[C@H](O)[C@@H](COP(=O)(O)OP(=O)(O)OP(=O)(O)O)O2)c(=O)[nH]c1=O [dTTP] | 9.09 ± 0.89 | 
Nc1ncnc2c1ncn2[C@H]1C[C@H](O)[C@@H](COP(=O)(O)OP(=O)(O)OP(=O)(O)O)O1 [dATP] |  | AsfvPolX: 0.66 ± 0.05 µM
Nc1ccn([C@H]2C[C@H](O)[C@@H](COP(=O)(O)OP(=O)(O)OP(=O)(O)O)O2)c(=O)n1 [dCTP] | 6.85 ± 0.55 | 
